Measurements: patent publication US4699914A, “Imidazole group containing 2(1H)-pyridones and method for treating heart insufficiencies in humans” (A. Nattermann & Cie GmbH, priority 1984, dated 1987)

What was measured:
Anaesthetized dog = test: Evaluation of the cardiotonic activity in vivo, anaesthetized dog; set-up: species or system dog (adult mongrel dogs of either sex); Blood Pressure: unit not given here; details: intravenous
Description: The effects of increasing doses of the drugs were measured upon intravenous administration to anaesthetized dogs. As parameters myocardial contractility, heart rate and arterial blood pressure were registered.
Adult mongrel dogs of either sex received a premedication of morphinhydrochloride (1.0 mg/kg s.c.). Thirty minutes later anaesthesia was induced by chloralose/urethane. The animals were heparinised with 500 I.U. heparin/kg (i.v.) as an initial dosage followed by doses of 250 I.U./kg given every 4 hours.
The trachea was intubated but the animals were allowed to breathe spontaneously. The test solutions were injected via a cannula in the vena cephalica antebrachii dextra. Arterial blood pressure was measured by a cannula in the femoral artery. In order to enable the registration of the myocardial contractility a Millar catheter tip pressure transducer was inserted into the left ventricle by way of the left carotid artery. Arterial blood pressure and left ventricular blood pressure were recorded continuously. Heart rate is triggered from the peak of the blood pressure signal.
From the left ventricular blood pressure the first derivative was calculated by a differentiator amplifier to give left ventricular dp/dt which was recorded as well. The compounds were solved in tetrahydrofurfurylalcohol polyethylene glycolether when necessary with additional heating.
Each dose of the test compounds was administered in a volume of 0.1 ml/kg, the duration of the injection was 1 minute.
The results with the tested compound representing the subject of invention 3,6-Dimethyl-5-[4-(1-imidazolyl)-2-thienyl]-2(1H)-pyridone-hydrochloride=Ain comparison with reference substance 4,5-Dihydro-6-[4-(1-imidazolyl)-phenyl]-3(2H)-pyridazinone ((CI 914, Drugs of the Future 9 (1984), 256)=B are given in the table 1.

human platelets = test: Inhibition of the collagen-induced platelets aggregation in vitro (method of Born); format: cell-based; details: read-out: IC50 (concentration which causes an aggregation inhibition of 50%), platelet rich human plasma
Description: The inhibition of the collagen-induced platelets aggregation in vitro was carried out by using the method of Born (Nature, 194, 927-929 (1962)) in using a platelet rich human plasma with the substances of the present invention 3,6-dimethyl-5-[-5-(1-imidazolyl)-2-thienyl]-2(1H)-pyridone-hydrochloride=C, 3,6-dimethyl-5-[4-(1-imidazolyl)phenyl]-2(1H)-pyridone-hydrochloride=D, 5-[4-(1-imidazolyl)-2-thienyl]-6-methyl-2(1H)-pyridone-hydrochloride=E in comparison with the reference substance acetylsalicyclic acid=F.

Water solubility = format: physicochemical; details: hydrochloride, in words

Compound | Blood Pressure (Anaesthetized dog; 0.01 mg/kg) | Contractility (Anaesthetized dog; 0.01 mg/kg) | Heart Rate (Anaesthetized dog; 0.01 mg/kg) | Blood Pressure (Anaesthetized dog; 0.0316 mg/kg) | Contractility (Anaesthetized dog; 0.0316 mg/kg) | Heart Rate (Anaesthetized dog; 0.0316 mg/kg) | Blood Pressure (Anaesthetized dog; 0.1 mg/kg) | Contractility (Anaesthetized dog; 0.1 mg/kg) | Heart Rate (Anaesthetized dog; 0.1 mg/kg) | IC50 (human platelets) [nM] | other results
Cc1[nH]c(=O)c(C)cc1-c1cc(-n2ccnc2)cs1.Cl [A, 3,6-Dimethyl-5-[4-(1-imidazolyl)-2-thienyl]-2(1H)-pyridone-hydrochloride] | -0.2 | +32.4 | +5.9 | -4.1 | +83.3 | +20.0 | -17.4 | +185.5 | +32.1 |  | 
O=C1CCC(c2ccc(-n3ccnc3)cc2)=NN1 [B, 4,5-Dihydro-6-[4-(1-imidazolyl)-phenyl]-3(2H)-pyridazinone, reference compound] | -1.3 | +8.7 | +3.6 | -0.7 | +25.5 | +18.9 | -10.4 | +64.8 | +15.4 |  | 
Cc1[nH]c(=O)c(C)cc1-c1ccc(-n2ccnc2)s1 [C] |  |  |  |  |  |  |  |  |  | 440 | 
Cc1[nH]c(=O)c(C)cc1-c1ccc(-n2ccnc2)cc1 [D] |  |  |  |  |  |  |  |  |  | 370 | 
Cc1[nH]c(=O)ccc1-c1cc(-n2ccnc2)cs1 [E] |  |  |  |  |  |  |  |  |  | 540 | 
CC1=C(c2ccc(-n3ccnc3)cc2)CCC(=O)N1.Cl [Example 22, 3,4-dihydro-5-[4-(1-imidazolyl)-phenyl]-6-methyl-2(1H)-pyridone-hydrochloride] |  |  |  |  |  |  |  |  |  |  | water solubility (Water solubility): water soluble
